These results are taken from patent publication US9834550B2, “Pyridopyrimidinone compounds for modulating the catalytic activity of histone lysine demethylases (KDMs)” (Dong-A Socio Holdings Co., Ltd., priority 2014, dated 2017).

The experiment deals with T1, Recombinant human JARID1B/KDM5B (Homo sapiens, UniProt Q9UGL1).
T1 construct: purchased Active Motif 31432; host or cells: Sf9 insect cells
T1 sequence (Q9UGL1 whole entry): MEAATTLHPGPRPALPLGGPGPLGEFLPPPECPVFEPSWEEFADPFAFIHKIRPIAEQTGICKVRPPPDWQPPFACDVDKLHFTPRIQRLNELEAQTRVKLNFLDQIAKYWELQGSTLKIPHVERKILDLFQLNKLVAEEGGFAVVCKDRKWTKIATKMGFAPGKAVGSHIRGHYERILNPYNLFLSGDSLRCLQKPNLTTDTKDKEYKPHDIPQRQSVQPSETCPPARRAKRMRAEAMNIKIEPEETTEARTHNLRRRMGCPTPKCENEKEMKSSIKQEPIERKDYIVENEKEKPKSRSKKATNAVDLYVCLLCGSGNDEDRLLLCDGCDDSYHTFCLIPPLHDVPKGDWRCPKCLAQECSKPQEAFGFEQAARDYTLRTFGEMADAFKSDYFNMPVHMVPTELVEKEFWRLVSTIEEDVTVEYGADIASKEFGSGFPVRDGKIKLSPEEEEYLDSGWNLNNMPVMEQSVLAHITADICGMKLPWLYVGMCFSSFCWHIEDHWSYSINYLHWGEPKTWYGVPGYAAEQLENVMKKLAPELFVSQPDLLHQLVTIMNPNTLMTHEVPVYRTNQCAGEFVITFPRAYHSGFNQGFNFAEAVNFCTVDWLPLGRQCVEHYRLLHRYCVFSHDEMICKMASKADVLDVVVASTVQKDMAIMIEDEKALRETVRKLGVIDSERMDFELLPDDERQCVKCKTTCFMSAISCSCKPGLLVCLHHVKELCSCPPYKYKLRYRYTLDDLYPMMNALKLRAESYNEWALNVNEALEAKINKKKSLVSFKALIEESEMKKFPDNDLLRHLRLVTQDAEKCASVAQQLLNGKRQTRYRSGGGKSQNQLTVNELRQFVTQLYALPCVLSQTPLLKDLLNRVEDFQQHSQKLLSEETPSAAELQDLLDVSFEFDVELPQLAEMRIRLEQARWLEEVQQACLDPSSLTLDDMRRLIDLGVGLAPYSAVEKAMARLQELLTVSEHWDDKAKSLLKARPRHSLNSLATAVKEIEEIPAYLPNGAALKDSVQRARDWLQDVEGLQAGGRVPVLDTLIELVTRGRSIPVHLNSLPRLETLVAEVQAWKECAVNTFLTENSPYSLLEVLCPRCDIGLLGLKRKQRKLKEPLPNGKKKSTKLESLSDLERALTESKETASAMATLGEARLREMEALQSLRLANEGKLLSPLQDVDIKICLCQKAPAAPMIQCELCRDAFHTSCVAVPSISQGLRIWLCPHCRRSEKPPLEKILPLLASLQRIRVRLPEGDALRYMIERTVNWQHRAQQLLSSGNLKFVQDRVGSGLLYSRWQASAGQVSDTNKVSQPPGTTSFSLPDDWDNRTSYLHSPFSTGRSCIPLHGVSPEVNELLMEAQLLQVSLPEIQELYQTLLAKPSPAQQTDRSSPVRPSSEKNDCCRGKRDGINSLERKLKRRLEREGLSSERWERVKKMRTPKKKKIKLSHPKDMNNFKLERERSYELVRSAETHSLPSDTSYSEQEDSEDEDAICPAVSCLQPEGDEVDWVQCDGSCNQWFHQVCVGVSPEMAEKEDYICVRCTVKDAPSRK
Kind of experiment: LANCE Ultra TR-FRET demethylase assay with FLAG-tagged JARID1B. Type of experiment: biochemical. Particulars: 100 nM compound; 500 nM biotinylated H3K4me3 peptide substrate. The method in brief:
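Sf9-expressed N-FLAG full-length JARID1B (10–30 nM) preincubated 5 min with compound at 20, 1 or 0.1 uM (1% DMSO), then 500 nM biotin-H3K4me3 peptide, 500 uM 2-OG, 25 uM Fe(II), 2 mM ascorbate added; 30 min at room temperature in Hepes pH 7.5. H3K4me2/1 product read by TR-FRET 665/590 ratio.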
For the molecule `CC(Oc1ccc(Cc2ccccc2)cc1)c1nc2c(CNCC3CCNCC3)nccc2c(=O)[nH]1` (stereo not drawn) [Example 212, 2-(1-(4-benzylphenoxy)ethyl)-8-(((piperidin-4-ylmethyl)amino)methyl)pyrido[3,4-d]pyrimidin-4(3H)-one], the inhibition at 0.1 µM lay within 20 to 50%.
For the molecule `CC(Oc1ccc(Cc2ccccc2)cc1)c1nc2c(CNC[C@H]3CCNC3)nccc2c(=O)[nH]1` (stereo partly drawn) [Example 213, 2-(1-(4-benzylphenoxy)ethyl)-8-(((((S)-pyrrolidin-3-yl)methyl)amino)methyl)pyrido[3,4-d]pyrimidin-4(3H)-one], the inhibition at 0.1 µM fell in the range of 20 to 50%.
Regarding `CC(Oc1ccc(Cc2ccccc2)cc1)c1nc2c(CNCC3CCN(C)C3)nccc2c(=O)[nH]1` (stereo not drawn) [Example 214, 2-(1-(4-benzylphenoxy)ethyl)-8-((((1-methylpyrrolidin-3-yl)methyl)amino)methyl)pyrido[3,4-d]pyrimidin-4(3H)-one], the inhibition at 0.1 µM fell in the range of 20 to 50%.
Turning to `C[C@@H](Oc1ccc(Cc2ccccc2)cc1)c1nc2c(CNCC3CCNCC3)nccc2c(=O)[nH]1` [Example 215, (R)-2-(1-(4-benzylphenoxy)ethyl)-8-(((piperidin-4-ylmethyl)amino)methyl)pyrido[3,4-d]pyrimidin-4(3H)-one], the inhibition at 0.1 µM is above 50%.
Consider `C[C@@H](Oc1ccc(Cc2ccccc2)cc1)c1nc2c(CNCC3CCN(C)CC3)nccc2c(=O)[nH]1` [Example 216, (R)-2-(1-(4-benzylphenoxy)ethyl)-8-((((1-methylpiperidin-4-yl)methyl)amino)methyl)pyrido[3,4-d]pyrimidin-4(3H)-one], for which the inhibition at 0.1 µM is above 50%.
The result for `C[C@@H](Oc1ccc(F)c(Cl)c1)c1nc2c(CNCC3CCNCC3)nccc2c(=O)[nH]1` [Example 217, (R)-2-(1-(3-chloro-4-fluorophenoxy)ethyl)-8-(((piperidin-4-ylmethyl)amino)methyl)pyrido[3,4-d]pyrimidin-4(3H)-one] reads below 20%; that for `C[C@@H](Oc1ccc(F)c(Cl)c1)c1nc2c(CNCC3CCN(C)CC3)nccc2c(=O)[nH]1` [Example 218, (R)-2-(1-(3-chloro-4-fluorophenoxy)ethyl)-8-((((1-methylpiperidin-4-yl)methyl)amino)methyl)pyrido[3,4-d]pyrimidin-4(3H)-one], 20 to 50%; that for `C[C@H](Oc1ccc(F)c(Cl)c1)c1nc2c(CNCC3CCNCC3)nccc2c(=O)[nH]1` [Example 219, (S)-2-(1-(3-chloro-4-fluorophenoxy)ethyl)-8-(((piperidin-4-ylmethyl)amino)methyl)pyrido[3,4-d]pyrimidin-4(3H)-one], 20 to 50%.
As to `C[C@H](Oc1ccc(F)c(Cl)c1)c1nc2c(CNCC3CCN(C)CC3)nccc2c(=O)[nH]1` [Example 220, (S)-2-(1-(3-chloro-4-fluorophenoxy)ethyl)-8-((((1-methylpiperidin-4-yl)methyl)amino)methyl)pyrido[3,4-d]pyrimidin-4(3H)-one], the inhibition at 0.1 µM is above 50%.
For `CCN(CCN(C)C)C(=O)CNCc1nccc2c(=O)[nH]c(COc3ccc(F)c(Cl)c3)nc12` [Example 221, 2-(((2-((3-chloro-4-fluorophenoxy)methyl)-4-oxo-3,4-dihydropyrido[3,4-d]pyrimidin-8-yl)methyl)amino)-N-(2-(dimethylamino)ethyl)-N-ethylacetamide], the inhibition at 0.1 µM was above 50%.
Next, `CCCCN(CC)C(=O)CNCc1nccc2c(=O)[nH]c(COc3ccc(F)c(Cl)c3)nc12` [Example 222, N-butyl-2-(((2-((3-chloro-4-fluorophenoxy)methyl)-4-oxo-3,4-dihydropyrido[3,4-d]pyrimidin-8-yl)methyl)amino)-N-ethylacetamide]: 20 to 50%; `O=C(CNCc1nccc2c(=O)[nH]c(COc3ccc(F)c(Cl)c3)nc12)N1CCCC1` [Example 223, 2-((3-chloro-4-fluorophenoxy)methyl)-8-(((2-oxo-2-(pyrrolidin-1-yl)ethyl)amino)methyl)pyrido[3,4-d]pyrimidin-4(3H)-one]: 20 to 50%; `O=C(CNCc1nccc2c(=O)[nH]c(COc3ccc(F)c(Cl)c3)nc12)N1CCCCC1` [Example 224, 2-((3-chloro-4-fluorophenoxy)methyl)-8-(((2-oxo-2-(piperidin-1-yl)ethyl)amino)methyl)pyrido[3,4-d]pyrimidin-4(3H)-one]: 20 to 50%.
For `O=C(CNCc1nccc2c(=O)[nH]c(COc3ccc(F)c(Cl)c3)nc12)N1CCOCC1` [Example 225, 2-((3-chloro-4-fluorophenoxy)methyl)-8-(((2-morpholino-2-oxoethyl)amino)methyl)pyrido[3,4-d]pyrimidin-4(3H)-one], the inhibition at 0.1 µM lay in the range of 20 to 50%.
`CN1CCN(C(=O)CNCc2nccc3c(=O)[nH]c(COc4ccc(F)c(Cl)c4)nc23)CC1` [Example 226, 2-((3-chloro-4-fluorophenoxy)methyl)-8-(((2-(4-methylpiperazin-1-yl)-2-oxoethyl)amino)methyl)pyrido[3,4-d]pyrimidin-4(3H)-one]: the inhibition at 0.1 µM was above 50%.
On to `CN1CCC(CNC(=O)CNCc2nccc3c(=O)[nH]c(COc4ccc(F)c(Cl)c4)nc23)C1` (stereo not drawn) [Example 227, 2-(((2-((3-chloro-4-fluorophenoxy)methyl)-4-oxo-3,4-dihydropyrido[3,4-d]pyrimidin-8-yl)methyl)amino)-N-((1-methylpyrrolidin-3-yl)methyl)acetamide], for which the inhibition at 0.1 µM lay within 20 to 50%.
As for `N[C@@H]1CCN(C(=O)CNCc2nccc3c(=O)[nH]c(COc4ccc(F)c(Cl)c4)nc23)C1` [Example 228, (R)-8-(((2-(3-aminopyrrolidin-1-yl)-2-oxoethyl)amino)methyl)-2-((3-chloro-4-fluorophenoxy)methyl)pyrido[3,4-d]pyrimidin-4(3H)-one], the inhibition at 0.1 µM is above 50%.
For the molecule `N[C@H]1CCN(C(=O)CNCc2nccc3c(=O)[nH]c(COc4ccc(F)c(Cl)c4)nc23)C1` [Example 229, (S)-8-(((2-(3-aminopyrrolidin-1-yl)-2-oxoethyl)amino)methyl)-2-((3-chloro-4-fluorophenoxy)methyl)pyrido[3,4-d]pyrimidin-4(3H)-one], the inhibition at 0.1 µM is above 50%.
As for `O=C(CNCc1nccc2c(=O)[nH]c(COc3ccc(F)c(Cl)c3)nc12)N[C@@H]1CCCNC1` [Example 230, (R)-2-(((2-((3-chloro-4-fluorophenoxy)methyl)-4-oxo-3,4-dihydropyrido[3,4-d]pyrimidin-8-yl)methyl)amino)-N-(piperidin-3-yl)acetamide], the inhibition at 0.1 µM was above 50%.
The result for `O=C(CNCc1nccc2c(=O)[nH]c(COc3ccc(F)c(Cl)c3)nc12)N[C@H]1CCCNC1` [Example 231, (S)-2-(((2-((3-chloro-4-fluorophenoxy)methyl)-4-oxo-3,4-dihydropyrido[3,4-d]pyrimidin-8-yl)methyl)amino)-N-(piperidin-3-yl)acetamide] reads above 50%; that for `O=C(CNCc1nccc2c(=O)[nH]c(COc3ccc(F)c(Cl)c3)nc12)NC1CCN(Cc2ccccc2)C1` (stereo not drawn) [Example 232, N-(1-benzylpyrrolidin-3-yl)-2-(((2-((3-chloro-4-fluorophenoxy)methyl)-4-oxo-3,4-dihydropyrido[3,4-d]pyrimidin-8-yl)methyl)amino)acetamide], above 50%.
